Reference: patent US4361703A, “Para-amino(or nitro)phenyl N-acetylaminothioalkanoates” (priority 1977, dated 1982)

What was measured:
[1] = Serum "total NAPA" in beagle dogs; assay type: in vivo; conditions: oral, last dose after 23 days
Method: (B)--Investigation of Serum Concentrations in Beagle Dogs
6 Beagle dogs (3 males and 3 females) were dosed once a day (at 08.00 hrs. each day) for 23 days with Compound A, suspended in 1% gum tragacanth, which was administered orally by oesophageal tube, at a rate of either 432 mg/kg (2 dogs, 1 male and 1 female) or 675 mg/kg (4 dogs, 2 male and 2 female). During this period the dogs received their usual food and water until 16.00 hrs. on the day before the test; but from that time until 08.00 hrs. on the day of the test they were given no food, although they received their usual drinking water. The usual dosage of Compound A was however given to the animal at 08.00 hrs. on the day of the test.
Without any further feeding, serum samples were then taken from each animal 2, 4 and 6 hours after the oral administration of Compound A, thus at 10.00 hrs., 12.00 hrs. and 14.00 hrs. on the day of the test. After the 6-hour serum sample had been taken, the animals received their usual food for a while; but they were again made to fast for 12 hours from 20.00 hrs. on the day of the test until 08.00 hrs. on the following day, when the last, 24-hour serum sample was taken. […]

[2] = test system: yeast-inflamed hind-paw pain-threshold; assay: Analgesic activity, Randall-Selitto test in rats; assay type: in vivo, female Charles River rats; conditions: for P of pain-threshold (t-test versus control): 2 millimoles/kg oral
Method: (C)--Investigation of Analgesic Activity in Rats
A control group received only the gum tragacanth vehicle.
In order to evaluate the effect of the treatment upon pain-thresholds, pressure was applied both to the injected hind-paw and to the other non-injected hind-paw. The pain-threshold was noted as the pressure at which the rat flinched, measured using an Ugo Basile "Analgesimeter" for both hind-paws of each rat at intervals of 1 hour, 3 hours, 5 hours and 22 hours after the administration, and expressed as the percentage of the pain-threshold pressure for the injected (and thus inflamed) hind-paw as against the non-injected (and thus healthy) hind-paw.

in vivo = conditions: mouse, in vivo, po
Method: (E)--Investigation of Acute Oral Toxicity in Mice
Charles River (CD-1 COBS) albino mice, 20-22 g in weight, were kept for some days in an air-conditioned animal house and fed with a standard diet (sterile VAR granules). They were fasted overnight before experiment, with water ad libitum. 15 Male mice and 15 female mice were used for each experiment.
N-Acetyl-para-aminophenol (NAPA) and N-acetyl-para-aminophenyl N'-acetyl-D,L-methionate (Compound A) were then administered to the mice, orally, as a suspension (shaken continuously with an electromagnetic agitator) in 5% gum arabic at a volume of 0.02 ml/g, either individually or in variously proportioned mixtures and at different dose levels, as shown in Table VII below.
A control group received only the 5% gum arabic vehicle.

[3] = Acute oral toxicity in rats; assay type: in vivo; conditions: rat, in vivo, po; for mortality at 24 h / mortality at 48 h / mortality at 72 h / mortality at 96 h / mortality at 120 h / mortality at 144 h / mortality at 168 h: Percentage Mortality
Method: (§1) (F)--Investigation of Acute Oral Toxicity in Rats
(§2) The investigation was carried out upon groups of 10 male and 10 female albino rats (Charles River CD-1 COBS) of 80-100 g body weight. […] Before the experiment they were fasted overnight, with water ad libitum. NAPA and Compound A were then administered orally by oesophageal intubation as suspensions (continuously shaken with an electromagnetic agitator) in 1% gum arabic at a volume of 2 ml/100 g body weight, and at dose levels of 1, 2, 4 and 8 g/kg. A control group received orally, under the same experimental conditions, merely 2 ml/100 g of the suspension vehicle. The rats were then kept under observation during seven days, while their behaviour patterns were observed and the mortality recorded

[4] = test system: albino rats (Charles River CD-1 COBS); assay: Acute oral toxicity in rats; assay type: in vivo
Method: as §1, §2

[5] = mouse, in vivo, po
Method: (A)--Investigation of Serum Concentrations in Mice
36 Charles River COBS mice (18 males and 18 females) weighing 30 g each were deprived of food for 16 hours before the trial but were given their usual drinking water. Three groups, each containing 6 males and 6 females, received a dosage of 1 ml/100 g body weight per mouse, orally by stomach tube, of a suspension in 1% gum tragacanth of respectively:
Group X: 500 mg/kg of N-acetyl-para-aminophenol
A blood sample was taken by throat-slitting from one male and one female from each Group at each study time, i.e. 1/2, 1, 2, 4 and 24 hours after the oral administration.
At times 1/2, 1, 2 and 4 hours, each serum sample was divided into three 0.1 ml trial samples for the following three determinations:

Question: For CSCCC(NC(C)=O)C(=O)Oc1ccc(NC(C)=O)cc1 (racemic) [Compound A, N-acetyl-para-aminophenyl N'-acetyl-D,L-methionate], which “recovery of "total NAPA" in serum, time” value [1] is on record?
Answer: The value was “up to 24 hours”.

Question: And the “Percentage Pain-Threshold (injected vs non-injected paw)” value ([2]; 1 millimole/kg oral (NAPA 151, A 324 mg/kg), 1 hr. (3.5 hrs. from yeast))?
Answer: Its value is 44 ± 3.8 Percentage.

Question: What about the “Percentage Pain-Threshold (injected vs non-injected paw)” value ([2]; 1 millimole/kg oral (NAPA 151, A 324 mg/kg), 3 hrs. (5.5 hrs. from yeast)) of the same compound?
Answer: Its value is 41 ± 2.9 Percentage.

Question: And the “Percentage Pain-Threshold (injected vs non-injected paw)” value ([2]; 1 millimole/kg oral (NAPA 151, A 324 mg/kg), 5 hrs. (7.5 hrs. from yeast))?
Answer: Its value is 50 ±4.2 Percentage.

Question: And the “Percentage Pain-Threshold (injected vs non-injected paw)” value ([2]; 1 millimole/kg oral (NAPA 151, A 324 mg/kg), 22 hrs. (24.5 hrs. from yeast))?
Answer: The value was 50 ± 2.4 Percentage.

Question: And the analgesic effect ([2]; 2 millimoles/kg level, oral)?
Answer: The analgesic effect was “statistically-significant analgesic effect at the 2 millimoles/kg level, which is at least as great as N-acetyl-para-aminophenol (NAPA)”.

Question: And the “Percentage Pain-Threshold (injected vs non-injected paw)” value ([2]; 2 millimoles/kg oral (NAPA 302, A 648 mg/kg), 1 hr. (3.5 hrs. from yeast))?
Answer: The value was 53 ± 3.3 Percentage.

Question: And the “Percentage Pain-Threshold (injected vs non-injected paw)” value ([2]; 2 millimoles/kg oral (NAPA 302, A 648 mg/kg), 3 hrs. (5.5 hrs. from yeast))?
Answer: Its value is 54 ±3.2 Percentage.

Question: What about the “Percentage Pain-Threshold (injected vs non-injected paw)” value ([2]; 2 millimoles/kg oral (NAPA 302, A 648 mg/kg), 5 hrs. (7.5 hrs. from yeast)) of the same compound?
Answer: The value was 59 ± 2.7 Percentage.

Question: And the “Percentage Pain-Threshold (injected vs non-injected paw)” value ([2]; 2 millimoles/kg oral (NAPA 302, A 648 mg/kg), 22 hrs. (24.5 hrs. from yeast))?
Answer: The value was 54 ± 1.9 Percentage.

Question: And the “P of pain-threshold (t-test versus control)” value ([2]; 1 hr.)?
Answer: The value was less than 0.02.

Question: What about the “P of pain-threshold (t-test versus control)” value ([2]; 3 hrs.) of the same compound?
Answer: The value was less than 0.02.

Question: What about the “P of pain-threshold (t-test versus control)” value ([2]; 5 hrs.) of the same compound?
Answer: The value was less than 0.01.

Question: And the “P of pain-threshold (t-test versus control)” value ([2]; 22 hrs.)?
Answer: Its value is less than 0.01.

Question: And the LD50 at 24 h (in vivo)?
Answer: Its LD50 at 24 h is no less than 4000 mg/kg.

Question: And the LD50 at 168 h (in vivo)?
Answer: Its LD50 at 168 h is no less than 4000 mg/kg.

Question: What about the LD50 at 24 h [3] of the same compound?
Answer: Its LD50 at 24 h is greater than 8000 mg/kg.

Question: And the LD50 at 168 h [3]?
Answer: The LD50 at 168 h was greater than 8000 mg/kg.

Question: And the mortality at 24 h ([3]; 1000 mg/kg)?
Answer: The mortality at 24 h was 0%.

Question: What about the mortality at 48 h ([3]; 1000 mg/kg) of the same compound?
Answer: Its mortality at 48 h is 0%.

Question: What about the mortality at 72 h ([3]; 1000 mg/kg) of the same compound?
Answer: Its mortality at 72 h is 0%.

Question: And the mortality at 96 h ([3]; 1000 mg/kg)?
Answer: Its mortality at 96 h is 0%.

Question: And the mortality at 120 h ([3]; 1000 mg/kg)?
Answer: The mortality at 120 h was 0%.

Question: And the mortality at 144 h ([3]; 1000 mg/kg)?
Answer: Its mortality at 144 h is 0%.

Question: And the mortality at 168 h ([3]; 1000 mg/kg)?
Answer: The mortality at 168 h was 0%.

Question: What about the mortality at 24 h ([3]; 2000 mg/kg) of the same compound?
Answer: The mortality at 24 h was 0%.

Question: What about the mortality at 48 h ([3]; 2000 mg/kg) of the same compound?
Answer: Its mortality at 48 h is 0%.

Question: And the mortality at 72 h ([3]; 2000 mg/kg)?
Answer: Its mortality at 72 h is 0%.

Question: What about the mortality at 96 h ([3]; 2000 mg/kg) of the same compound?
Answer: Its mortality at 96 h is 0%.

Question: And the mortality at 120 h ([3]; 2000 mg/kg)?
Answer: The mortality at 120 h was 0%.

Question: What about the mortality at 144 h ([3]; 2000 mg/kg) of the same compound?
Answer: The mortality at 144 h was 0%.

Question: What about the mortality at 168 h ([3]; 2000 mg/kg) of the same compound?
Answer: The mortality at 168 h was 0%.

Question: What about the mortality at 24 h ([3]; 4000 mg/kg) of the same compound?
Answer: Its mortality at 24 h is 0%.

Question: What about the mortality at 48 h ([3]; 4000 mg/kg) of the same compound?
Answer: The mortality at 48 h was 0%.

Question: And the mortality at 72 h ([3]; 4000 mg/kg)?
Answer: The mortality at 72 h was 0%.

Question: And the mortality at 96 h ([3]; 4000 mg/kg)?
Answer: The mortality at 96 h was 0%.

Question: And the mortality at 120 h ([3]; 4000 mg/kg)?
Answer: Its mortality at 120 h is 0%.

Question: And the mortality at 144 h ([3]; 4000 mg/kg)?
Answer: Its mortality at 144 h is 0%.

Question: And the mortality at 168 h ([3]; 4000 mg/kg)?
Answer: The mortality at 168 h was 0%.

Question: And the mortality at 24 h ([3]; 8000 mg/kg)?
Answer: The mortality at 24 h was 0%.

Question: And the mortality at 48 h ([3]; 8000 mg/kg)?
Answer: Its mortality at 48 h is 0%.

Question: What about the mortality at 72 h ([3]; 8000 mg/kg) of the same compound?
Answer: Its mortality at 72 h is 0%.

Question: What about the mortality at 96 h ([3]; 8000 mg/kg) of the same compound?
Answer: The mortality at 96 h was 0%.

Question: And the mortality at 120 h ([3]; 8000 mg/kg)?
Answer: Its mortality at 120 h is 0%.

Question: And the mortality at 144 h ([3]; 8000 mg/kg)?
Answer: The mortality at 144 h was 0%.

Question: What about the mortality at 168 h ([3]; 8000 mg/kg) of the same compound?
Answer: Its mortality at 168 h is 0%.

Question: And the “toxicity compared with NAPA” value ([4]; oral, rats)?
Answer: The value was “far less toxic than NAPA”.

Question: What about the “mortality (in words)” value ([4]; oral, rats, 1-8 g/kg) of the same compound?
Answer: The value was “no mortality was recorded at any of the different dose levels”.

Question: And the “mortality (in words)” value ([4]; rat, in vivo, po)?
Answer: Its value is “did not induce any mortality at dose levels up to 8 g/kg”.

Question: And the “serum "total" or "enzymatic" NAPA profile” value [5]?
Answer: Its value is “does not however give the acute peak observed at one-half an hour after the administration of NAPA+methionine”.
